Data as given in patent publication US10076519B2 (CYTOKINETICS, INC., priority 2010, dated 2018).

Each molecule was assayed on rabbit skeletal myofibrils (fast skeletal myofibrils) (assay: Activation of fast skeletal myofibrils (PUMA assay, PK/LDH-coupled ATPase at pCa25)). Conditions: AC1.4 determined according to the procedure of Example 39; reported as class symbols.
Format: biochemical
Summary of the method: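 Detergent-washed rabbit psoas myofibrils (~90% fast fibres, calcium-regulated) assayed at calcium giving 25% of maximal ATPase rate (pCa25). ADP turnover coupled via pyruvate kinase/lactate dehydrogenase to NADH oxidation, read at 340 nm. Buffer 12 mM PIPES, 2 mM MgCl2, 1 mM DTT, pH 6.8; AC1.4 values derived.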
In the case of `CC(C)CC(NC(=O)c1ccc(NCC(C)(C)c2ccc(F)cc2)nn1)C(N)=O` (stereo not drawn) [N-(1-carbamoyl-3-methylbutyl)(6-{[2-(4-fluorophenyl)-2-methylpropyl]amino}pyridazin-3-yl)carboxamide], the “Mean AC1.4” value is reported as “C (C=10-20 uM)”. In the case of `CC(=O)Nc1nc(-c2ccc(NCC3(c4ncccc4F)CCC3)nn2)c[nH]1`, the “Mean AC1.4” value is reported as “D (D=>20 uM)”. In the case of `CS(=O)(=O)N(CC1(c2ncccc2F)CNC1)c1ccc(-c2ccc3[nH]ncc3c2)nn1` [(6-(1H-indazol-5-yl)pyridazin-3-yl){[3-(3-fluoro(2-pyridyl))azetidin-3-yl]methyl}(methylsulfonyl)amine], the “Mean AC1.4” value is reported as “D (D=>20 uM)”. For `COc1ncc(-c2ccc(NCC3(c4ccc(F)cc4)CCC3)nn2)cn1` [{[(4-fluorophenyl)cyclobutyl]meth-yl}[6-(2-methoxypyrimidin-5-yl)pyridazin-3-yl]amine], the “Mean AC1.4” value was “B (B=1-10 uM)”. For `Fc1cccnc1C1(CNc2ccc(-c3ccc4[nH]cnc4c3)nn2)CCC1` [(6-benzimidazol-5-ylpyridazin-3-yl){[(3-fluoro(2-pyridyl))cyclobutyl]methyl}amine], the “Mean AC1.4” value was “A (A=<1 uM)”.

Same assay, conditions: median AC1.4 class, procedure of Example 39
`CNc1n[nH]c2ccc(-c3ccc(NC[C@]4(c5ncccc5F)C[C@H](F)C4)nn3)cc12` [{[3-fluoro-1-(3-fluoro(2-pyridyl))cyclobutyl]methyl}{6-[3-(methylamino)(1H-indazol-5-yl)]pyridazin-3-yl}amine] was tested, and the “Mean AC1.4” value was “A (A=<1 uM)”. For `Fc1cccnc1-c1ccc(NCC2(c3ncccc3F)CCC2)nn1` [{[(3-fluoro(2-pyridyl))cyclobutyl]methyl}[6-(3-fluoro(2-pyridyl))pyridazin-3-yl]amine], the “Mean AC1.4” value was “B (B=1-10 uM)”. In the case of `NC(=O)Nc1ccc(-c2ccc(NC3(c4ncccc4F)CCC3)nn2)cc1`, the “Mean AC1.4” value is reported as “B (B=1-10 uM)”. `O=C(O)c1ccc(-c2ccc(NC3(c4ncccc4F)CCC3)nn2)s1` [5-(6-{[(3-fluoro-2-pyridyl)cyclobutyl]amino}pyr-idazin-3-yl)thiophene-2-carboxylic acid] was tested, and the “Mean AC1.4” value was “D (D=>20 uM)”. `Oc1ccc2nc(-c3ccc(NCC4(c5ncccc5F)CCC4)nn3)sc2n1` [2-[6-({[(3-fluoro-2-pyridyl)cyclobutyl]methyl}ami-no)pyridazin-3-yl]-1,3-thiazolino[5,4-b]pyridin-5-ol] was tested, and the “Mean AC1.4” value was “B (B=1-10 uM)”. In the case of `O=C(O)c1ccc(F)c(-c2ccc(NC3(c4ccc(F)cc4)CCC3)nn2)c1`, the “Mean AC1.4” value is reported as “B (B=1-10 uM)”. `CC(C)(CNc1ccc(-c2ncc(C(N)=O)s2)nn1)c1ncccc1F` [2-(6-{[2-(3-fluoro(2-pyridyl))-2-methylpropyl]amino}pyridazin-3-yl)-1,3-thiazole-5-carboxamide] was tested, and the “Mean AC1.4” value was “A (A=<1 uM)”. `CS(=O)(=O)Nc1cccc(-c2ccc(NC3(c4ncccc4OC(F)F)CCC3)nn2)c1` was tested, and the “Mean AC1.4” value was “C (C=10-20 uM)”. For `NCCn1nnc(-c2ccc(NCC3(c4ncccc4F)CCC3)nn2)n1` [{6-[2-(2-aminoethyl)(1,2,3,4-tetraazol-5-yl)]pyridazin-3-yl}{[(3-fluoro(2-pyridyl))cyclobutyl]methyl}amine], the “Mean AC1.4” value was “D (D=>20 uM)”.

Same assay, conditions: median AC1.4 reported as class; procedure of Example 39
With `Cn1ccc(NC(=O)c2ccc(NCC3(c4ncccc4F)CCC3)nn2)n1` [[6-({[(3-fluoro(2-pyridyl))cyclobutyl]methyl}ami-no)pyridazin-3-yl]-N-(1-methylpyrazol-3-yl)carboxamide] the “Mean AC1.4” value was “C (C=10-20 uM)”. In the case of `O=C(NC1COC1)c1cccc(-c2ccc(NC[C@]3(c4ncccc4F)C[C@H](F)C3)nn2)c1` [{3-[6-({[3-fluoro-1-(3-fluoro(2-pyridyl))cyclobutyl]methyl}ami-no)pyridazin-3-yl]phenyl}-N-oxetan-3-ylcarboxamide], the “Mean AC1.4” value is reported as “B (B=1-10 uM)”. With `O=C(N[C@@H]1CCNC1=O)c1ccc(NCC2(c3ncccc3F)CCC2)nn1` [N-((3R)-2-oxopyrrolidin-3-yl)[6-({[(3-fluoro(2-pyridyl))cyclobutyl]methyl}ami-no)pyridazin-3-yl]carboxamide] the “Mean AC1.4” value was “D (D=>20 uM)”. `Fc1cccnc1C1(CNc2ccc(-c3ncc(CN4CCNCC4)s3)nn2)CCC1` [{[(3-fluoro(2-pyridyl))cyclobutyl]methyl}{6-[5-(piperazinylmethyl)(1,3-thiazol-2-yl)]pyridazin-3-yl}amine] was tested, and the “Mean AC1.4” value was “B (B=1-10 uM)”.
